Results: PubChem BioAssay (NCI)
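Grown in 96-well plates, cells were treated for 48 hours with each compound at five concentrations. Insufficient inhibition: endpoint recorded as highest concentration tested. GI50: concentration for 50% inhibition of growth. TGI denotes the concentration required for complete inhibition of growth.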

How the values were obtained:
Assay in all cases: NCI-60 cell line screen, 48 h
[1] = tested on: OVCAR-5 ovarian
[2] = tested on: UO-31 renal
[3] = tested on: M14 melanoma
[4] = tested on: T-47D breast
[5] = tested on: HCC-2998 colon
[6] = tested on: SF-295 CNS
[7] = tested on: IGROV1 ovarian
[8] = tested on: 786-0 renal
[9] = tested on: SK-MEL-28 melanoma
[10] = tested on: BT-549 breast
[11] = tested on: DU-145 prostate
[12] = tested on: KM12 colon
[13] = tested on: SW-620 colon
[14] = tested on: SF-539 CNS
[15] = tested on: LOX IMVI melanoma
[16] = tested on: UACC-62 melanoma
[17] = tested on: COLO 205 colon
[18] = tested on: SNB-75 CNS
[19] = tested on: UACC-257 melanoma
[20] = tested on: CCRF-CEM leukemia
[21] = tested on: HOP-62 NSCLC
[22] = tested on: MOLT-4 leukemia
[23] = tested on: K-562 leukemia
[24] = tested on: PC-3 prostate
[25] = tested on: A498 renal
[26] = tested on: MCF7 breast
[27] = tested on: SK-MEL-2 melanoma
[28] = tested on: RPMI-8226 leukemia
[29] = tested on: U251 CNS
[30] = tested on: HT29 colon
[31] = tested on: HS 578T breast
[32] = tested on: EKVX NSCLC
[33] = tested on: HOP-92 NSCLC
[34] = tested on: OVCAR-4 ovarian
[35] = tested on: OVCAR-8 ovarian
[36] = tested on: NCI-H23 lung
[37] = tested on: MDA-MB-231 breast
[38] = tested on: A549 NSCLC
[39] = tested on: OVCAR-3 ovarian
[40] = tested on: NCI-H522 lung
[41] = tested on: HCT-116 colon
[42] = tested on: NCI-H226 lung
[43] = tested on: HCT-15 colon
[44] = tested on: MDA-MB-435
[45] = tested on: NCI-H460 lung
[46] = tested on: ACHN renal
[47] = tested on: NCI/ADR-RES ovarian
[48] = tested on: RXF 393 renal
[49] = tested on: SNB-19 CNS
[50] = tested on: MALME-3M melanoma
[51] = tested on: SK-OV-3 ovarian
[52] = tested on: CAKI-1 renal
[53] = tested on: SN12C renal
[54] = tested on: SK-MEL-5 melanoma
[55] = tested on: SF-268 CNS
[56] = tested on: TK-10 renal

Cc1cc2oc(=O)cc(OC/C=C3/CCC(=O)O3)c2cc1C
GI50 [1]: 8.7 µM | TGI [1]: 22.9 µM | GI50 [2]: 1490 nM | TGI [2]: 4.88 µM | GI50 [3]: 2180 nM | TGI [3]: 4.87 µM | GI50 [4]: 1690 nM | TGI [4]: 7.5 µM | GI50 [5]: 15.4 µM | TGI [5]: 31 µM | GI50 [6]: 13.7 µM | TGI [6]: 32 µM | GI50 [7]: 3.33 µM | TGI [7]: 14.6 µM | GI50 [8]: 2570 nM | TGI [8]: 10.4 µM | GI50 [9]: 10.6 µM | TGI [9]: 24 µM | GI50 [10]: 1930 nM | TGI [10]: 6.73 µM | GI50 [11]: 2670 nM | TGI [11]: 12.4 µM | GI50 [12]: 3.31 µM | TGI [12]: 18 µM | GI50 [13]: 2780 nM | TGI [13]: 11.6 µM | GI50 [14]: 1340 nM | TGI [14]: 5.7 µM | GI50 [15]: 1820 nM | TGI [15]: 4.59 µM | GI50 [16]: 3.38 µM | TGI [16]: 13.6 µM | GI50 [17]: 2190 nM | TGI [17]: 10.4 µM | GI50 [18]: 1970 nM | TGI [18]: 9.61 µM | GI50 [19]: 12.3 µM | TGI [19]: 26.4 µM | GI50 [20]: 2330 nM | TGI [20]: 7.25 µM | GI50 [21]: 12.1 µM | TGI [21]: 26.4 µM | GI50 [22]: 2250 nM | TGI [22]: 13.4 µM | GI50 [23]: 8.23 µM | TGI [23]: 34.1 µM | GI50 [24]: 1740 nM | TGI [24]: 11.4 µM | GI50 [25]: 2140 nM | TGI [25]: 12 µM | GI50 [26]: 2250 nM | TGI [26]: 12.6 µM | GI50 [27]: 3.41 µM | TGI [27]: 16.1 µM | GI50 [28]: 512 nM | TGI [28]: 4.01 µM | GI50 [29]: 3.42 µM | TGI [29]: 15.1 µM | GI50 [30]: 2900 nM | TGI [30]: 12.7 µM | GI50 [31]: 4.76 µM | TGI [31]: 43.7 µM | GI50 [32]: 12.9 µM | TGI [32]: 30.5 µM | GI50 [33]: 1650 nM | TGI [33]: 10.6 µM | GI50 [34]: 2560 nM | TGI [34]: 13.7 µM | GI50 [35]: 4.62 µM | TGI [35]: 19.5 µM | GI50 [36]: 8.04 µM | TGI [36]: 22.5 µM | GI50 [37]: 7.71 µM | TGI [37]: 21 µM | GI50 [38]: 13.4 µM | TGI [38]: 27.1 µM | GI50 [39]: 2930 nM | TGI [39]: 11.4 µM | GI50 [40]: 1400 nM | TGI [40]: 2970 nM | GI50 [41]: 2720 nM | GI50 [42]: 10.8 µM | TGI [42]: 51.1 µM | GI50 [43]: 2690 nM | TGI [43]: 12.2 µM | GI50 [44]: 4.64 µM | TGI [44]: 18.5 µM | GI50 [45]: 6.6 µM | TGI [45]: 32.5 µM | GI50 [46]: 804 nM | TGI [46]: 2040 nM | GI50 [47]: 5.09 µM | TGI [47]: 23.2 µM | GI50 [48]: 1830 nM | TGI [48]: 9.81 µM | GI50 [49]: 3.04 µM | TGI [49]: 19 µM | GI50 [50]: 2390 nM | TGI [50]: 7.62 µM | GI50 [51]: 12.8 µM | TGI [51]: 26.1 µM | GI50 [52]: 3.59 µM | TGI [52]: 17.7 µM | GI50 [53]: 5.2 µM | TGI [53]: 22.5 µM | GI50 [54]: 12.4 µM | TGI [54]: 26.3 µM | GI50 [55]: 6.46 µM | TGI [55]: 40.1 µM | GI50 [56]: 2000 nM | TGI [56]: 8.34 µM
